One series deals with mouse calvarial defect. Put plainly: Mouse calvarial critical size defect with nanofibrous scaffold: μCT of new bone 8 weeks after implantation. The series is classed as in vivo, C57BL/6 mice. The note with it: compared to the control BSA group; μCT and histomorphometry. As for the experimental part:
To determine the optimal PTH release mode to ensure desired PTH anabolic action in bone regeneration, the pulsatile PTH delivery device and the continuous PTH delivery device were compared in identical experimental set ups to access the outcomes of bone regeneration in a critical size (2.3 mm in diameter) round defect created in the mouse skull. The BSA loaded pulsatile devices were used as vehicle controls. All animal procedures were performed following a protocol approved by the University of Michigan Institutional Animal Care and Use Committee. C57BL/6 mice were randomly divided into four groups. Animals were anaesthetized with isoflurane (2%) inhalation. The 2.3 mm diameter craniotomy defect centered on the parietal calvarial bone was created using a trephine. A blank nanofibrous scaffold was placed to fill in the defect and a delivery device (pulsatile PTH, continuous PTH, or BSA control device) was placed adjacent to the scaffold with the opening side facing the scaffold (see FIG. 24). […]
For the calvarial bone analysis, the skulls were scanned with a fixed global threshold of 20%. 3D reconstruction of the skull and quantitative analyses were performed. A 2.3 mm-round region of interest centered on the defect was determined and the bone volume (mm^3) (BV) and bone mineral density (BMD) in the area were measured using manufacturer's software (Scanco μCT 100).

For the next series, the system named is mouse tibiae. Put plainly: Tibiae μCT to assess systemic side effects of local PTH release, Example 2. The series is classed as in vivo, C57BL/6 mice. Particulars: compared to the BSA control group. As for the experimental part:
To determine the optimal PTH release mode to ensure desired PTH anabolic action in bone regeneration, the pulsatile PTH delivery device and the continuous PTH delivery device were compared in identical experimental set ups to access the outcomes of bone regeneration in a critical size (2.3 mm in diameter) round defect created in the mouse skull. The BSA loaded pulsatile devices were used as vehicle controls. All animal procedures were performed following a protocol approved by the University of Michigan Institutional Animal Care and Use Committee. C57BL/6 mice were randomly divided into four groups. Animals were anaesthetized with isoflurane (2%) inhalation. The 2.3 mm diameter craniotomy defect centered on the parietal calvarial bone was created using a trephine. A blank nanofibrous scaffold was placed to fill in the defect and a delivery device (pulsatile PTH, continuous PTH, or BSA control device) was placed adjacent to the scaffold with the opening side facing the scaffold (see FIG. 24).
Rather, PTH was subcutaneously injected for 3 weeks (21 days) using a standard systemic administration dose (40 μg/kg/d). […]
Mouse tibiae from the different groups were examined using μCT to assess the potential systemic side effects of the local PTH releases. […] A region of 0.75 mm right below the growth plate was analyzed to quantify the trabecular bone volume.

The subject of series [1] is procollagen I N-terminal propeptide (P1NP). Put plainly: Serum P1NP ELISA three weeks after implantation, Example 2. It counts as in vivo, C57BL/6 mice. As for the experimental part: (§1) Three weeks after implantation, the mice were anaesthetized with inhalation of isoflurane (2%) and blood was collected by tail blood draw. After centrifuge for 10 minutes at 13000 rpm, serum was separated and kept frozen until biochemical assays were performed. Serum procollagen I N-terminal propeptide (P1NP) (MyBioSource, Inc) and TRAP5b (Novatein Biosciences, Mass.) ELISA immunoassays were performed following the manufacturer's protocols. The ELISA analyses were employed to evaluate the levels of bone biomarkers.
A general note: In an ELISA, binding on a coated surface is turned into a signal by an enzyme label.

For a further series, the system named is TRAP5b. Put plainly: Serum TRAP5b ELISA three weeks after implantation, Example 2. It counts as in vivo, C57BL/6 mice. As for the experimental part:
as §1

For series [2] the following is noted: in vivo; cited from earlier work.

As to PTH (1-34), the “bone growth in the nanofibrous scaffold” value with mouse calvarial defect is reported as “significantly promoted”. Also, the “tibia trabecular bone volume” value in the series on mouse tibiae is on record as “significantly increased”. Moreover, in series [1], the “serum P1NP level (bone formation marker)” value is “significantly elevated”. The “serum TRAP5b level (bone resorption marker)” value with TRAP5b is listed as “significantly elevated”. In addition, the half-life in series [2] is 8 min.

The term half-life denotes the time needed for the level to fall by half in the phase considered.

Source of the values: patent publication US11571389B2, “Delivery devices and methods for making the same” (THE REGENTS OF THE UNIVERSITY OF MICHIGAN, priority 2016, dated 2023).
